Assays:
[1] = system: C57BL/6 mice subjected to liver IR; experiment: Liver H&E histology after liver IR (percent necrosis, Suzuki score); assay type: in vivo, mouse; settings: liver IR; for Suzuki score (0 = no injury, 12 = maximal injury): H&E liver
Method: (§1) Mice were anesthetized with intraperitoneal pentobarbital (50 mg/kg or to effect). Mice were placed under a heating lamp and on a 37° C. heating pad. After a midline laparotomy and intraperitoneal application of 20 U heparin, left lateral and median lobes of the liver were subjected to ischemia with a microaneurysm clip occluding the hepatic triad above the bifurcation. This method of partial hepatic ischemia results in a segmental (˜70%) hepatic ischemia but spares the right lobe of the liver and prevents mesenteric venous congestion by allowing portal decompression throughout the right and caudate lobes of the liver. The liver was then repositioned in the peritoneal cavity in its original location for 60 minutes. The liver was kept moist with gauze soaked in 0.9% normal saline. The body temperature was monitored by an infrared temperature sensor (Linear Laboratories, Fremont, Calif.) every 10 min. and maintained at 37° C. using a heating lamp and a heating pad. After 60 minutes, the liver was reperfused and the wound closed. Sham-operated mice were subjected to laparotomy and identical liver manipulations without vascular occlusion. Two, 4 and 24 hr after reperfusion, plasma was collected for the measurement of alanine aminotransferase (ALT), a common indicator of liver damage, as well as creatinine (Cr) a common indicator of kidney damage. The liver tissue subjected to IR was collected to measure percent liver necrosis (2, 4 and 24 hr after IR), neutrophil infiltration (with immunohistochemistry, 4 and 24 hr after IR), apoptosis (with terminal deoxynucleotidyl transferase-mediated dUTP nick end labeling staining, caspase 3 immunoblotting and DNA laddering, 24 hr after IR), and inflammation by RT-PCR for pro-inflammatory mRNAs (4 hr after IR).
Livers were also analyzed for the degree of hepatocellular damage using the Suzuki's criteria (Suzuki et al., Transplantation 1993, Vol. 55, pp. 1265-1272). To obtain a Suzuki score, 3 liver injury indices are graded: sinusoidal congestion (0-4), hepatocyte necrosis (0-4), and ballooning degeneration (0-4) are graded for a total score of 0-12. No necrosis, congestion, or centrilobular ballooning is given a score of 0 whereas severe congestion/ballooning and >60% lobular necrosis is given a value of 4.

[2] = system: C57BL/6 mice subjected to liver IR; experiment: Neutrophil infiltration into liver and kidney after liver IR; assay type: in vivo, mouse
Method: as §1, with “The liver tissue subjected to IR was collected to measure percent liver necrosis (2, 4 and 24 hr after IR), neutrophil infiltration (with immunohistochemistry, 4 and 24 hr after IR), apoptosis (with terminal deoxynucleotidyl transferase-mediated dUTP nick end labeling staining, caspase 3 immunoblotting and DNA laddering, 24 hr after IR), and inflammation by RT-PCR for pro-inflammatory mRNAs (4 hr after IR).” left out

[3] = system: C57BL/6 mice subjected to liver IR; experiment: Pro-inflammatory mRNA (RT-PCR) and plasma TNF-α/IL-6 after liver IR; assay type: in vivo, mouse
Method: as §1
The extent of the suppression was different between kidney and liver. […]

[4] = system: SK1 KO mice subjected to liver IR; experiment: Liver IR in SK1 KO mice: plasma ALT and creatinine; assay type: in vivo, mouse; settings: SK1KO, hepatic IR 24 h
Method: The effects of administering Sg1P (0.1 mg/kg i.v. and 0.2 mg/kg s.c.) on liver and renal injury were also determined in the KO mice and are also shown in Tables 9 and 10 below.

ERK/MAPK, Akt, HSP27 = experiment: Immunoblotting/RT-PCR of liver and kidney of mice injected with Sg1P; assay type: in vivo, mouse; settings: i.v. injection
Method: Mice were injected with sphinganine 1-phophate intravenously and their kidney and liver tissues were extracted at 15 minutes after injection (for immunoblotting of phosphorylated proteins) or at 5 hours after injection (for RT-PCR). […] HSP27 is a known F-actin stabilizing and anti-apoptotic protein.

IHUVEC monolayers = experiment: Evans blue dye-albumin permeability of IHUVEC monolayers; assay type: cell-based, human
Method: (§2) IHUVEC—immortalized human umbilical vein endothelial cells (ATCC, P.O. Box 1549 Manassas, Va. 20108) or HRGEC—human renal glomerular endothelial cells (ScienCell Research Laboratories, 6076 Corte Del Cedro Carlsbad, Calif. 92011) were cultured within a humidified atmosphere of 5% CO2 in air and grown to confluence. When confluent, the cells were trypsinized and seeded onto 0.45 μm pore size polycarbonate filters at the base of inserts of 6.5 mm diameter Transwell chambers and cultured until confluence.
Human endothelial cell permeability was assessed with the Evans blue dye extravasation assay (Awad et al., 2006). The permeability characteristics of the resulting confluent monolayers were assessed by following the diffusion of albumin-conjugated Evan's blue dye from the upper to lower compartments of the Transwell chambers. After addition of dye, chambers were shaken and allowed to equilibrate for 10-30 min at 37° C. After equilibration, stimuli were added and dye levels in lower compartments intermittently assayed by spectrophotometric analysis.
The addition of TNF-α or thrombin induces apoptosis and increases cell permeability in cultured endothelial cells.

[5] = system: human renal glomerular endothelial cells (HRGEC); experiment: HRGEC apoptosis, kinase phosphorylation, HSP27 and F-actin; assay type: cell-based
Method: as §2
In further experiments, apoptosis was induced in human renal endothelial (HRGEC) cells with either TNF-α plus cycloheximide or H2O2, with or without Sg1P treatment. In both cases, the addition of Sg1P (1 uM) reduced PARP and caspase 3 fragmentations, which are indices of apoptosis (N=2, data not shown).

[6] = system: human epithelial HK-2 cell line; experiment: Kinase phosphorylation and HSP27 expression in HK-2 cells; assay type: cell-based; settings: HK-2 (data not shown)
From the text: As shown above, Sg1P protects human endothelial cells, and does so through the same mechanism as shown in mouse tissue.

## CCCCCCCCCCCCCCC[C@@H](O)[C@@H](N)COP(=O)(O)O [Sg1P, sphinganine-1-phosphate]
[1]
  Suzuki score (0 = no injury, 12 = maximal injury): 5.2 ± 0.8
[1]; listed as sphinganine 1-phosphate
  Suzuki score (0 = no injury, 12 = maximal injury): 5.2±0.8
[1]; H&E
  Average percent necrotic areas in liver: 44±8%
[2]
  Neutrophils in necrotic areas of the liver: 21.8±7.1 neutrophils/field
  Neutrophils in the kidneys: 0.8±0.3 neutrophils/field
[3]; kidney
  Liver IR-induced ICAM-1 and MIP-2 mRNA upregulation in kidney: suppressed
[3]; liver
  Liver IR-induced upregulation of ICAM-1, KC, MCP-1 and MIP-2 mRNA in liver: suppressed
[3]; plasma
  Liver IR-induced increase in plasma TNF-α and IL-6: almost eliminated
[4]
  Creatinine (mean): 0.709 mg/dL
[4]; 0.1 mg/kg i.v. and 0.2 mg/kg s.c.
  ALT (mean): 9602.01 U/L
ERK/MAPK, Akt, HSP27; tissues 15 minutes after injection
  Phosphorylation of ERK/MAPK, Akt and HSP27 in liver and kidney: resulted in phosphorylation
ERK/MAPK, Akt, HSP27; tissues 5 hours after injection
  HSP27 mRNA expression in liver and kidney: induced
IHUVEC monolayers; 5 U/ml thrombin
  Thrombin-induced permeability (albumin leak): same cytoprotective effect
IHUVEC monolayers; TNF-α 50 ng/ml or 100 ng/ml, concurrent Sg1P
  TNF-α-induced permeability (albumin leak): reduced the permeability of the cells to levels comparable to control
[5]; 1 uM, apoptosis induced with TNF-α plus cycloheximide or H2O2
  PARP and caspase 3 fragmentations: reduced
[5]; HRGEC treated with TNF-α, co-administration
  Phalloidin staining (F-actin): restored the phalloidin staining
[5]; HRGEC, 1 μM
  HSP27 phosphorylation and total HSP27 expression: induced the phosphorylation of HSP27, as well as increased expression of total HSP27
  Phosphorylation of ERK and Akt: resulted in the phosphorylation
[6]
  Phosphorylation of ERK/MAPK, Akt, HSP27 and HSP27 expression: failed to phosphorylate ERK/MAPK, Akt and HSP27 and also failed to induce HSP27 expression
